Key:
[1] = tested on: Galleria mellonella larvae; assay: Galleria mellonella tolerability study; settings: 100 mg/kg and 200 mg/kg injected alone; after 48 h
Description: In vitro and in vivo discordances have been observed in antimicrobial chemotherapy, thus, therapeutic efficacy may not necessarily be reliably extrapolated based on in vitro data alone. […] Colistin (100 mg/kg), an antibiotic well known for its toxicity towards eukaryotes, served as a positive control for this experiment while PBS served as negative control. […] Survivability was scored for a total of 4 days.
In vivo larvae-infection model. In vivo synergistic effects were determined using Galleria mellonella infection model, as previously described (20). Briefly, worms were purchased from The Worm Lady® Live Feeder (ON, Canada), stored in their natural habitat at 16° C., and used within 10 days of delivery. The worms (average weight of 250 mg) were used for tolerability and efficacy studies. Tolerability study was performed by injecting 10 μL of antimicrobial agents only at concentrations equivalent to 100 mg/kg or 200 mg/kg. The worms (ten in each group) were incubated at 37° C. and monitored for 96 h. […] Overnight grown culture of respective MDR P. aeruginosa isolate was standardized to 0.5 McFarland standard and diluted in PBS to a final concentration of […]. 10 μL of this solution (5 CFU) was injected into each worm and incubated for 3 h at 37° C. […] Worms treated with 10 μL PBS or high concentrations of test antibiotics served as negative and positive control, respectively. The worms were incubated at 37° C. in Petri dishes lined with filter paper and scored for survivability every 6 h for up to 48 h. This experiment was repeated to give a total of thirty worms (n=30) in each case. Survival data curves were plotted using Kaplan-Meier survival analysis.

PA 264 = assay: Checkerboard combination study / MIC; assay type: cell-based, Pseudomonas aeruginosa
PA 101243 = assay: Checkerboard combination study / MIC; assay type: cell-based, Pseudomonas aeruginosa; settings: PA 101243
PA 259 = assay: Checkerboard combination study / MIC; assay type: cell-based, Pseudomonas aeruginosa
PA 100036 = assay: Checkerboard combination study / MIC; assay type: cell-based, Pseudomonas aeruginosa
PA 101885 = assay: Checkerboard combination study / MIC; assay type: cell-based, Pseudomonas aeruginosa
PA 262 = assay: Checkerboard combination study / MIC; assay type: cell-based, Pseudomonas aeruginosa
PA 114228 = assay: Checkerboard combination study / MIC; assay type: cell-based, Pseudomonas aeruginosa

5-O-(Octylcyclam)-tobramycin.9TFA [Compound 2]
4 µg/mL: MICCombination (2) (PA 264; MIC of 2 combined with DOR) | MICCombination (2) (PA 264; MIC of 2 combined with MER) | MICCombination (2) (PA 264; MIC of 2 combined with PIP) | MICCombination (2) (PA 101885; MIC of 2 combined with DOR) | MICCombination (2) (PA 262; MIC of 2 combined with PIP) | MICCombination (2) (PA 114228; MIC of 2 combined with AZT) | MICCombination (2) (PA 114228; MIC of 2 combined with CEF) | MICCombination (2) (PA 114228; MIC of 2 combined with DOR)
<0.0156: FIC2 (PA 264; with DOR) | FIC2 (PA 264; with MER) | FIC2 (PA 264; with PIP) | FIC2 (PA 101885; with DOR) | FIC2 (PA 262; with PIP) | FIC2 (PA 114228; with AZT) | FIC2 (PA 114228; with CEF) | FIC2 (PA 114228; with DOR)
<0.0039: FIC2 (PA 101243; with CAZ) | FIC2 (PA 259; with PIP)
2 µg/mL: MICCombination (2) (PA 101243; MIC of 2 combined with AZT) | MICCombination (2) (PA 100036; MIC of 2 combined with MER)
0.25 µg/mL: MICCombination (2) (PA 101243; MIC of 2 combined with CEF) | MICCombination (2) (PA 101243; MIC of 2 combined with DOR)
1 µg/mL: MICCombination (2) (PA 101243; MIC of 2 combined with CAZ) | MICCombination (2) (PA 259; MIC of 2 combined with PIP)
<0.0010: FIC2 (PA 101243; with CEF) | FIC2 (PA 101243; with DOR)
<0.0078: FIC2 (PA 101243; with AZT) | FIC2 (PA 100036; with MER)
<0.0020: FIC2 (PA 101243; with MER) | FIC2 (PA 114228; with PIP)
100%: survival of larvae [1]
<0.0625: FIC2 (PA 264; with CEF) | FIC2 (PA 101243; with PIP) | FIC2 (PA 259; with AZT) | FIC2 (PA 259; with CAZ) | FIC2 (PA 259; with CEF) | FIC2 (PA 259; with MER) | FIC2 (PA 100036; with CEF) | FIC2 (PA 100036; with DOR) | FIC2 (PA 100036; with PIP) | FIC2 (PA 101885; with AZT) | FIC2 (PA 101885; with CEF) | FIC2 (PA 101885; with PIP) | FIC2 (PA 262; with CAZ) | FIC2 (PA 262; with CEF) | FIC2 (PA 262; with DOR) | FIC2 (PA 262; with MER) | FIC2 (PA 114228; with CAZ)
0.5 µg/mL: MICCombination (2) (PA 101243; MIC of 2 combined with MER) | MICCombination (2) (PA 114228; MIC of 2 combined with PIP)
16 µg/mL: MICCombination (2) (PA 264; MIC of 2 combined with CEF) | MICCombination (2) (PA 101243; MIC of 2 combined with PIP) | MICCombination (2) (PA 259; MIC of 2 combined with AZT) | MICCombination (2) (PA 259; MIC of 2 combined with CAZ) | MICCombination (2) (PA 259; MIC of 2 combined with CEF) | MICCombination (2) (PA 259; MIC of 2 combined with MER) | MICCombination (2) (PA 100036; MIC of 2 combined with CEF) | MICCombination (2) (PA 100036; MIC of 2 combined with DOR) | MICCombination (2) (PA 100036; MIC of 2 combined with PIP) | MICCombination (2) (PA 101885; MIC of 2 combined with AZT) | MICCombination (2) (PA 101885; MIC of 2 combined with CEF) | MICCombination (2) (PA 101885; MIC of 2 combined with PIP) | MICCombination (2) (PA 262; MIC of 2 combined with CAZ) | MICCombination (2) (PA 262; MIC of 2 combined with CEF) | MICCombination (2) (PA 262; MIC of 2 combined with DOR) | MICCombination (2) (PA 262; MIC of 2 combined with MER) | MICCombination (2) (PA 114228; MIC of 2 combined with CAZ)
<0.0313: FIC2 (PA 264; with AZT) | FIC2 (PA 264; with CAZ) | FIC2 (PA 100036; with AZT) | FIC2 (PA 100036; with CAZ) | FIC2 (PA 101885; with CAZ) | FIC2 (PA 101885; with MER) | FIC2 (PA 262; with AZT) | FIC2 (PA 114228; with MER)
8 µg/mL: MICCombination (2) (PA 264; MIC of 2 combined with AZT) | MICCombination (2) (PA 264; MIC of 2 combined with CAZ) | MICCombination (2) (PA 100036; MIC of 2 combined with AZT) | MICCombination (2) (PA 100036; MIC of 2 combined with CAZ) | MICCombination (2) (PA 101885; MIC of 2 combined with CAZ) | MICCombination (2) (PA 101885; MIC of 2 combined with MER) | MICCombination (2) (PA 262; MIC of 2 combined with AZT) | MICCombination (2) (PA 114228; MIC of 2 combined with MER)

From patent US20210290648A1, “Potentiation of B-Lactam Antibiotics and B-Lactam/B-Lactamase Inhibitor Combinations Against Multidrug and Extensively Drug-Resistant Pseudomonas Aeruginosa Using Non-Ribosomal Tobramycin-Cyclam Conjugates” (University of Manitoba, priority 2018, published 2021)
